# Test results: patent US20230026360A1, “DETECTION OF MOLECULAR INTERACTIONS” (Orionis Biosciences, Inc., priority 2019, published 2023)
# “Also recorded” adds a separate entry of the source.
# Key:
# Type in all cases: cell-based
# CRBN = target: T1, CRBN (Homo sapiens, UniProt Q96SW2); experiment: CRBN inverse MAPPIT competition assay against TMP-lenalidomide hybrid ligand; conditions: 300 nM TMP-lenalidomide; leptin; HEK293T; specificity versus gp130-REM2 control (CTRL)
# T1 construct: expressed in transfected cells; host or cells: HEK293T
# Source text: As in Example 6, HEK293T cells were transfected with a plasmid encoding E. coli Dihydrofolate Reductase (DHFR) fused to the tails of the cytoplasmic domain of a mutated leptin receptor (pCLG-DHFR), a plasmid encoding a CRBN prey fused to the gp130 cytoplasmic domain or a plasmid encoding a gp130-REM2 control fusion that can directly interact with the leptin receptor of the DHFR fusion protein, and the STAT3 responsive pXP2d2-rPAPI-luciferase reporter plasmid—using a standard transfection method, as described (Lievens, et al. “Array MAPPIT: high-throughput interactome analysis in mammalian cells.” Journal of Proteome Research 8.2 (2009): 877-886). […] Data points in FIGS. 10A-B represent the average luciferase activity of triplicate samples derived from cells treated with leptin+test compound for the REM2 control (CTRL) or cells treated with leptin+hybrid ligand+test compound (CRBN) relative to leptin (CTRL) or leptin+hybrid ligand (CRBN) only treated samples (the signals obtained in absence of added test compound for both cases is set at 100% of luciferase activity on y-axis). Error bars represent standard deviations. Curves were fit using 4-parameter nonlinear regression in […] PRISM software.
# DCAF15-RBM39 binding [1] = target: T2, DCAF15-RBM39 binding (Homo sapiens, UniProt Q66K64); experiment: MAPPIT inverse assay, RBM39 receptor fusion + DCAF15 gp130 fusion; conditions: inverse configuration; leptin; HEK293T
# T2 construct: expressed in transfected cells; host or cells: HEK293T
# Source text: (§1) In this example, MAPPIT forward and inverse assays were developed that enable the assessment of sulfonamides to induce binding between DCAF15 and RBM39. […] The experimental setup was according to the procedure described before, using the following plasmid constructs encoding the MAPPIT receptor and gp130 fusions: in forward mode the DCAF15 bait was fused to a MAPPIT chimeric receptor construct containing the extracellular leptin receptor domain (pCLL-DCAF15) and RBM39 proteins was fused to the partial gp130 domain; in inverse mode, the DCAF15 bait was fused to the partial gp130 domain and RBM39 was fused to a MAPPIT transmembrane receptor (pCLG-RBM39). […] Cells were treated with leptin without or with the indicated dose of test compound (indisulam, tasisulam, CQS or E7820) at 24 hours after transfection. Luciferase activity was measured 24 hours after test compound treatment using the Luciferase Assay System kit (PROMEGA, Madison, Wis.) with an Ensight plate reader (PERKIN ELMER LIFE SCIENCES, Waltham, Mass.). […] Error bars represent standard deviations. […] The results shown in FIG. 12 indicate that only in the inverse assay mode sulfonamide-induced DCAF15-RBM39 binding can be observed.
# DCAF15-RBM39 binding [2] = target: T2, DCAF15-RBM39 binding; experiment: MAPPIT forward assay, DCAF15 receptor fusion + RBM39 gp130 fusion; conditions: forward configuration; leptin; HEK293T
# Source text: as §1
Structure (SMILES),competition with TMP-lenalidomide hybrid ligand for binding to CRBN (inhibition of luciferase signal) (CRBN),sulfonamide-induced recruitment of RBM39 to DCAF15 (luciferase signal) (DCAF15-RBM39 binding [1]),sulfonamide-induced recruitment of RBM39 to DCAF15 (luciferase signal) (DCAF15-RBM39 binding [2])
Cc1nc2cccc(N)c2c(=O)n1C1CCC(=O)NC1=O (stereo not drawn) [CC-122],specifically inhibit hybrid-ligand induced luciferase reporter activation in a dose-dependent manner; also recorded: competed efficiently,,
Cc1ccc(NS(=O)(=O)c2cccc(C#N)c2)c2[nH]cc(C#N)c12 [E7820],,dose-dependent luciferase signal increase,
NS(=O)(=O)c1ccc(S(=O)(=O)Nc2cccc3c(Cl)c[nH]c23)cc1 [indisulam],,dose-dependent luciferase signal increase,only in inverse mode could a dose-dependent luciferase signal increase be observed
Nc1cccc2c1C(=O)N(C1CCC(=O)NC1=O)C2=O (stereo not drawn) [pomalidomide],specifically inhibit hybrid-ligand induced luciferase reporter activation in a dose-dependent manner; also recorded: competed efficiently,,
O=C(NS(=O)(=O)c1ccc(Br)s1)c1ccc(Cl)cc1Cl [tasisulam],,dose-dependent luciferase signal increase,
